Experimental data published in patent publication US20070225171A1 (priority 2001, published 2007).

Assays:
[1] = system: SAD2 - Cultivar KY 160 genetically engineered to express a modified version of the SAD1 synthetic gene; experiment: Yield assay, 2,4-D sprayed on transgenic SAD2 tobacco; format: in vivo, Nicotiana tabacum; conditions: for Plant Yield / Percent Leaf Yield / Corrected Leaf Yield / Corrected Plant Yield / Leaf Yield: SAD2 tobacco, isooctyl ester formulation; for Plant Yield / Corrected Leaf Yield / Corrected Plant Yield / Leaf Yield: dry matter 21 days after spraying; for Percent Leaf Yield: 21 days after spraying
Description: The use of exogenously supplied synthetic auxins on agronomic crops to elicit direct non-herbicidal effects, with an emphasis on the potential enhancement of yield, was assessed using genetically-engineered (GE) tobacco plant lines expressing synthetic auxin metabolizing genes. Non-GE controls were used, permitting separation of the herbicidal and biological properties of the exogenously supplied synthetic auxins. Tobacco was utilized to model dry matter yield.
The research was conducted in a single phase entailing characterization of response variables when plants were subjected to maximum (1× rate=1 pound/acre of active ingredient) and low (¼×=4 ounces/acre of active ingredient) rates of exogenously applied 2,4-dichlorophenoxyacetic acid (2,4-D). GE lines of tobacco (dark fired cultivar “KY 160”) expressing a synthetic gene for auxin metabolism (SAD1 or SAD2) were used, along with non-GE lines of the same genotype as control material. Commercial tobacco production has long utilized decapitation (“topping”) to initiate a predictable increase in leaf weight, thickness, and dry matter yield. This yield increase is dependent upon variables, such as genotype and fertility. By utilizing controls of the same genotype and a fixed level of fertility, significant yield variation responses should be attributable to the treatment (exogenous auxin herbicide application).
The overall experimental design was comprised of three parallel completely randomized designs with spray rate and genotype as the main factors. Three replications were performed for each treatment within each experiment. Each replication was the average measurement of six plants. The tobacco lines were allowed to advance to the 6-8 leaf stage. Upon reaching this stage, the primary meristem was removed along with lower leaves so that only 4 leaves remained. Plants were then sprayed with herbicide and permitted to grow for an additional 21 days. At the end of this period, dry matter yields for both leaf and the whole plant were measured.
Yield data recorded for tobacco were leaf dry matter, leaf number, and total dry matter. Corrected plant yield and corrected leaf yield were calculated for each replication as the leaf dry matter divided by leaf number then multiplied by the expected number of leaves (6 plants×4 leaves=24). This corrected leaf yield was then added to stem yield fraction (arrived at by subtracting actual leaf yield from total plant yield) to create a corrected total plant yield. All tobacco yield measurements were recorded in grams after a 7-day drying period in ambient air dryers.
Seed of non-transgenic tobacco lines were germinated on MS03 (MS salts, B5 vitamins, 3% sucrose) medium. Transgenic seeds were germinated on the same medium augmented with 300 mg/L kanamycin monosulfate to allow detection of any seedlings failing to carry the transgene. Thirty days after germination, seedlings were transplanted to the greenhouse into flats holding 8 trays of 6 plants each for a total of 48 plants. Plants were permitted to grow for approximately 45 days, at which time 6-8 leaves had developed. Prior to spraying, the top of the plant retaining the uppermost two leaves was removed (decapitated) resulting in the retention of 4 fully-extended leaves for each plant.
For spray assays and for the yield studies, spraying was performed in an Allen Machine Works Spray Cabinet. Spray rates were established as the equivalent of 16 ounces of active ingredient per acre (1× rate), 4 ounces active ingredient/acre (¼× rate), and the control (no active ingredient per acre or 0×). The herbicide used was 2,4-D, isooctyl ester formulation (3.9 pounds of active ingredient/gallon) at equivalent rates noted above. To achieve this equivalent 1× field rate, 500 microliters of herbicide were diluted into a total volume of 50 ml. The ¼× field rate was achieved by diluting 125 microliters of herbicide in a 50 ml volume. […]

[2] = system: tomato genotype UC82L (control); experiment: Fruit yield assay, 2,4-D sprayed on non-transgenic tomato; format: in vivo, Lycopersicon esculentum; conditions: for Total Yield (Fresh Fruit Yield) / Fruit Weight (Average Fresh Fruit Weight) / Total Flowers / Fruit per Plant / Total Fruit No.: UC82L; for Total Yield (Fresh Fruit Yield): harvested over 60 days; for Fruit Weight (Average Fresh Fruit Weight) / Total Flowers / Fruit per Plant / Total Fruit No.: 60 days; for Total Flowers: Flower Number/plant/replication/treatment; for Fruit per Plant: Fruit Number/plant/replication/treatment; for Total Fruit No.: Total Fruit Number/replication/treatment
Text: The use of exogenously supplied synthetic auxins on agronomic crops to elicit direct non-herbicidal effects was further assessed using genetically-engineered tomato plant lines expressing a synthetic auxin metabolizing gene, and non-genetically-engineered controls. Tomato was utilized to model fruit retention (fruit set) and fruit yield. The transgenic tomato line was utilized in the T2 generation with the transgene fixed in a homozygous fashion. The tomato genotype UC82L was utilized as the control, as well as the background for tranformation with the pPZP211-PNPT-311-SAD2 binary plasmid. This genotype was chosen because it is more likely to closely approximate the behavior of field-grown tomatoes than some short-life-cycle laboratory strains of tomato.
In the same manner as for tobacco, the research was conducted in a single phase entailing characterization of response variables when plants were subjected to the maximum (1× rate=1 pound/acre of active ingredient) and low (¼×=4 ounces/acre of active ingredient) rates of exogenously applied 2,4-D. The overall experimental design was comprised of three parallel completely randomized designs with spray rate and genotype as the main factors. Three replications were performed for each treatment within each experiment. Each replication was the average of three plants that were harvested over a period of 60 days. Fruit number, fruit weight and flower number were measured directly, with average fruit weight and average fruit per plant being derived by dividing fruit weight and fruit number within a replication by the number of plants (3). Tomato fruit yield was measured on fresh fruit and recorded in grams.
Non-transgenic and transgenic seed were germinated and grown as described in Example 1 for tobacco. The transgenic tomato line was utilized in the T2 generation with the transgene fixed in a homozygous fashion.
The plants with 4 fully-extended leaves retained were sprayed as described in Example 1. Each replication (3 plants) was sprayed independently and permitted to dry before being moved back to the greenhouse for further growth for 60 days.
Fruit number, fruit weight, and flower number were measured directly during this 60-day period. Tomato fruit yield was measured on fresh fruit and recorded in grams.

[3] = system: Plants expressing the dioxygenase encoded by the tfdA gene; experiment: Herbicide tolerance of plants expressing the tfdA dioxygenase; format: in vivo; conditions: found by applicant
Text: See, e.g., Llewellyn and Last, in Herbicide-Resistant Crops Chapter 10, pages 159-174 (Duke, ed., CRC Lewis Publishers 1996). Preferably, additional bacterial codons of the tfdA coding sequence are replaced by plant-preferred codons to obtain better expression of the encoded dioxygenase. […] See, e.g., Llewellyn and Last, in Herbicide-Resistant Crops Chapter 10, pages 159-174 (Duke, ed., CRC Lewis Publishers 1996) and U.S. Pat. Nos. 6,100,446 and 6,153,401.

In the case of `O=C(O)COc1ccc(Cl)cc1Cl` [2,4-D, 2,4-dichlorophenoxyacetic acid], the “Plant Yield” value ([1]; 2,4-D rate 1X (1 pound active ingredient/acre)) is reported as 48.8 grams/plant/replication/treatment, the “Percent Leaf Yield” value ([1]; 2,4-D rate 1X) is reported as 42.2% and the “Corrected Leaf Yield” value ([1]; 2,4-D rate 1X) is reported as 21.6 grams/plant/replication/treatment. The “Corrected Plant Yield” value ([1]; 2,4-D rate 1X) was 51.0 grams/plant/replication/treatment, the “Leaf Yield” value ([1]; 2,4-D rate 1X) was 19.4 grams/plant/replication/treatment and the “Plant Yield” value ([1]; 2,4-D rate ¼X (4 ounces active ingredient/acre)) was 43.9 grams/plant/replication/treatment. For the same molecule, the “Percent Leaf Yield” value ([1]; 2,4-D rate ¼X) was 42.2%, the “Corrected Leaf Yield” value ([1]; 2,4-D rate ¼X) was 19.1 grams/plant/replication/treatment and the “Corrected Plant Yield” value ([1]; 2,4-D rate ¼X) was 45.2 grams/plant/replication/treatment. For the same molecule, the “Leaf Yield” value ([1]; 2,4-D rate ¼X) was 17.8 grams/plant/replication/treatment, the “effect on yield” value ([1]; transgenic material (SAD2) sprayed with either the ¼× or 1× rate) was “significant increase in yield” and the “Total Yield (Fresh Fruit Yield)” value ([2]; spray rate 1X (1 pound active ingredient/acre), 2,4-D isooctyl ester formulation) was 35.3 grams/plant/replication/treatmen. For the same molecule, the “Fruit Weight (Average Fresh Fruit Weight)” value ([2]; spray rate 1X) was 14.1 grams/fruit/plant/replication/treatment, the “Total Flowers” value ([2]; spray rate 1X) was 4.3 and the “Fruit per Plant” value ([2]; spray rate 1X) was 0.6. For the same molecule, the “Total Fruit No.” value ([2]; spray rate 1X) was 2.3, the “Total Yield (Fresh Fruit Yield)” value ([2]; spray rate ¼X (4 ounces active ingredient/acre), 2,4-D isooctyl ester formulation) was 66.1 grams/plant/replication/treatmen and the “Fruit Weight (Average Fresh Fruit Weight)” value ([2]; spray rate ¼X) was 26.0 grams/fruit/plant/replication/treatment. The “Total Flowers” value ([2]; spray rate ¼X) was 6.0, the “Fruit per Plant” value ([2]; spray rate ¼X) was 0.8 and the “Total Fruit No.” value ([2]; spray rate ¼X) was 3.0. For the same molecule, the “effect on average fruit weight” value ([2]; control line, ¼× rate) was “increase in average fruit weight”, the “effect on total flower number” value ([2]; control material, ¼× rate) was “reducing the number of flowers” and the “tolerance of plants to the herbicide” value [3] was “tolerant”.
